Measured values taken from patent US4728732A, “C-3'acylsulfonamido cephalosporin analogs” (American Home Products Corporation, priority 1985, dated 1988).
In brackets after ≈: the same amount, converted by molar mass.

Legend:
Assay type in all cases: cell-based
[1] = system: Streptococcus faecalis ATCC 29212; assay: MIC, procedure A (two-fold dilutions in broth, Microtiter plate); conditions: Enterococcus faecalis, ATCC29212
Description: (§1) The compounds of the invention are tested for their antibacterial activity. The test can be carried out in two ways:
(§2) A. The organisms used in the test comprise the following:
(§3) Staphylococcus aureus (penicillin-sensitive and resistant), Pseudomonas aeruginosa, Escherichia coli, […] pneumoniae, Bordetella bronchiseptica, Proteus vulgaris, P. mirabilis, Acinetobacter calcoaceticus.
(§4) Test organisms may be added or deleted in order to reflect current clinical patterns of antibiotic susceptibility or shifts in pathogenic potential.
(§5) Stock solution of appropriate medium (e.g. Mueller-Hinton Broth) is sterilized. Starting at a predetermined concentration (e.g. 250 μg/ml), two-fold dilutions are made with the Dynatech Automatic Diluter in a Microtiter plate of 8 rows of 12 wells each in which 11 wells in each row contain 50 μl of medium (e.g. Mueller-Hinton Broth) and the 12th well contains in 100 μl an aliquot of the compound to be tested. The diluted plates are inoculated using the Dynatech Automatic Inoculator which delivers the final inoculum (e.g. 10^5 cfu/ml of a seven-hour culture which has been incubated at 35° C.).
(§6) Plates are sealed with tape and incubated (e.g. 18 hours at 35° C.).

[2] = system: Staphylococcus aureus ATCC 29213; assay: as above; conditions: ATCC29213
Description: as §1, §2, §3, §4, §5, §6

[3] = system: Enterobacter cloacae ATCC 13047; assay: as above; conditions: ATCC13047
Description: as §1, §2, §3, §4, §5, §6

[4] = system: Pseudomonas aeruginosa ATCC 27853; assay: as above; conditions: ATCC27853
Description: as §1, §2, §3, §4, §5, §6

[5] = system: Escherichia coli ATCC 25922; assay: as above; conditions: ATCC25922
Description: as §1, §2, §3, §4, §5, §6

[6] = system: Proteus vulgaris A 84354 1; assay: as above; conditions: A843541
Description: as §1, §2, §3, §4, §5, §6

[7] = system: Klebsiella pneunomiae KL-1; assay: as above; conditions: KL1
Description: as §1, §2, §3, §4, §5, §6

[8] = system: Serratia marcescens ATCC 13880; assay: as above; conditions: ATCC13880
Description: as §1, §2, §3, §4, §5, §6

[9] = system: Streptococcus faecalis ATCC 29212; assay: MIC, procedure B (agar, Steers replicating device); conditions: Enterococcus faecalis, ATCC29212
Description: as §1
(§7) B. The organisms used in the test comprise the following:
as §3, §4
(§8) Organisms are normally grown for 18 hours in Brain Heart Infusion at 35° C. Cultures are adjusted with saline to MacFarland No. 1.5 standard prior to use.
(§9) Stock concentrations (e.g […] or units per ml) are prepared in a suitable vehicle. Two-fold dilutions are made. One ml quantities of each dilution are incorporated in 9 ml of the appropriate agar (e.g. Seed) in sterile Petri plates. The hardened surface is inoculated with test organisms by use of a Steers replicating device. The plates are incubated (e.g. 18 hours at 35° C.) and activity is determined.

[10] = system: Staphylococcus aureus ATCC 29213; assay: MIC, procedure B (agar, Steers replicating device); conditions: ATCC29213
Description: as §1, §7, §3, §4, §8, §9

[11] = system: Enterobacter cloacae ATCC 13047; assay: MIC, procedure B (agar, Steers replicating device); conditions: ATCC13047
Description: as §1, §7, §3, §4, §8, §9

[12] = system: Pseudomonas aeruginosa ATCC 27853; assay: MIC, procedure B (agar, Steers replicating device); conditions: ATCC27853
Description: as §1, §7, §3, §4, §8, §9

[13] = system: Escherichia coli ATCC 25922; assay: MIC, procedure B (agar, Steers replicating device); conditions: ATCC25922
Description: as §1, §7, §3, §4, §8, §9

[14] = system: Proteus vulgaris A 84354 1; assay: MIC, procedure B (agar, Steers replicating device); conditions: A843541
Description: as §1, §7, §3, §4, §8, §9

[15] = system: Klebsiella pneunomiae KL-1; assay: MIC, procedure B (agar, Steers replicating device); conditions: KL1
Description: as §1, §7, §3, §4, §8, §9

[16] = system: Serratia marcescens ATCC 13880; assay: MIC, procedure B (agar, Steers replicating device); conditions: ATCC13880
Description: as §1, §7, §3, §4, §8, §9

| Compound | MIC [1] | MIC [2] | MIC [3] | MIC [4] | MIC [5] | MIC [6] | MIC [7] | MIC [8] | MIC [9] | MIC [10] | MIC [11] | MIC [12] | MIC [13] | MIC [14] | MIC [15] | MIC [16] |
| --- | --- | --- | --- | --- | --- | --- | --- | --- | --- | --- | --- | --- | --- | --- | --- | --- |
| CO/N=C(\C(=O)N[C@@H]1C(=O)N2C(C(=O)OC(C)(C)C)=C(CN3C(=O)c4ccccc4S3(=O)=O)CS[C@H]12)c1csc(N)n1 [2 B.] | 16 µg/mL (≈ 25.2 µM) | 8 µg/mL (≈ 12.6 µM) | 16 µg/mL (≈ 25.2 µM) | 64 µg/mL (≈ 101 µM) | 2 µg/mL (≈ 3.15 µM) | 1 µg/mL (≈ 1.58 µM) | 1 µg/mL (≈ 1.58 µM) | 8 µg/mL (≈ 12.6 µM) |  |  |  |  |  |  |  |  |
| CO/N=C(\C(=O)N[C@@H]1C(=O)N2C(C(=O)O)=C(CN3C(=O)c4cscc4S3(=O)=O)CS[C@H]12)c1csc(N)n1 [1 C.] |  |  |  |  |  |  |  |  | 8 µg/mL (≈ 13.7 µM) | 4 µg/mL (≈ 6.84 µM) | 4 µg/mL (≈ 6.84 µM) | 64 µg/mL (≈ 109 µM) | 2 µg/mL (≈ 3.42 µM) | 0.5 µg/mL (≈ 0.855 µM) | 1 µg/mL (≈ 1.71 µM) | 2 µg/mL (≈ 3.42 µM) |
| CO/N=C(\C(=O)N[C@@H]1C(=O)N2C(C(=O)OC(C)(C)C)=C(CN3C(=O)c4cscc4S3(=O)=O)CS[C@H]12)c1csc(N)n1 [1 B.] | 256 µg/mL (≈ 400 µM) | 32 µg/mL (≈ 49.9 µM) | 64 µg/mL (≈ 99.9 µM) | 128 µg/mL (≈ 200 µM) | 8 µg/mL (≈ 12.5 µM) | 4 µg/mL (≈ 6.24 µM) | 4 µg/mL (≈ 6.24 µM) | 32 µg/mL (≈ 49.9 µM) |  |  |  |  |  |  |  |  |

Results, then the compound that gave them:

| MIC [1] | MIC [2] | MIC [3] | MIC [4] | MIC [5] | MIC [6] | MIC [7] | MIC [8] | MIC [9] | MIC [10] | MIC [11] | MIC [12] | MIC [13] | MIC [14] | MIC [15] | MIC [16] | Compound |
| --- | --- | --- | --- | --- | --- | --- | --- | --- | --- | --- | --- | --- | --- | --- | --- | --- |
| 256 µg/mL (≈ 403 µM) | 128 µg/mL (≈ 201 µM) | 128 µg/mL (≈ 201 µM) | 256 µg/mL (≈ 403 µM) | 4 µg/mL (≈ 6.29 µM) | 8 µg/mL (≈ 12.6 µM) | 2 µg/mL (≈ 3.15 µM) | 8 µg/mL (≈ 12.6 µM) |  |  |  |  |  |  |  |  | CO/N=C(\C(=O)N[C@@H]1C(=O)N2C(C(=O)OC(C)(C)C)=C(CN3C(=O)c4cccnc4S3(=O)=O)CS[C@H]12)c1csc(N)n1 [3 B.] |
|  |  |  |  |  |  |  |  | 8 µg/mL (≈ 13.8 µM) | 4 µg/mL (≈ 6.91 µM) | 8 µg/mL (≈ 13.8 µM) | 32 µg/mL (≈ 55.3 µM) | 1 µg/mL (≈ 1.73 µM) | 0.5 µg/mL (≈ 0.864 µM) | 0.5 µg/mL (≈ 0.864 µM) | 4 µg/mL (≈ 6.91 µM) | CO/N=C(\C(=O)N[C@@H]1C(=O)N2C(C(=O)O)=C(CN3C(=O)c4ccccc4S3(=O)=O)CS[C@H]12)c1csc(N)n1 [2 C.] |
|  |  |  |  |  |  |  |  | 128 µg/mL (≈ 221 µM) | 32 µg/mL (≈ 55.2 µM) | 16 µg/mL (≈ 27.6 µM) | 128 µg/mL (≈ 221 µM) | 2 µg/mL (≈ 3.45 µM) | 2 µg/mL (≈ 3.45 µM) | 1 µg/mL (≈ 1.73 µM) | 2 µg/mL (≈ 3.45 µM) | CO/N=C(\C(=O)N[C@@H]1C(=O)N2C(C(=O)O)=C(CN3C(=O)c4cccnc4S3(=O)=O)CS[C@H]12)c1csc(N)n1 [3 C.] |
